Reference: ChEMBL document CHEMBL1152457, “Antimicrobial drug resistance of Salmonella enterica serovar typhi in asia and molecular mechanism of reduced susceptibility to the fluoroquinolones” (2007)
Values after ≈ are worked out from the molar mass of the structure shown.

Legend:
Type in all cases: functional, Salmonella enterica subsp. enterica serovar Typhi
[1] = tested on: Salmonella enterica subsp. enterica; test: Antimicrobial activity against multidrug-resistant Salmonella enterica Serovar Typhi isolate A102 harboring DNA gyrase A S83Y mutation by disk diffusion method in presence of plasmid mediated quinolone-resistant gene qnrA and qnrS
[2] = tested on: Salmonella enterica subsp. enterica; test: Antimicrobial activity against multidrug-resistant Salmonella enterica Serovar Typhi isolate DT40 harboring DNA gyrase A S83F mutation by disk diffusion method
[3] = tested on: Salmonella enterica subsp. enterica; test: Antimicrobial activity against multidrug-resistant Salmonella enterica Serovar Typhi isolate DT47 harboring DNA gyrase A S83F mutation by disk diffusion method in presence of plasmid mediated quinolone-resistant gene qnrA and qnrS
[4] = tested on: Salmonella enterica subsp. enterica; test: Antimicrobial activity against multidrug-resistant Salmonella enterica Serovar Typhi isolate AG16 harboring DNA gyrase A S83F mutation by disk diffusion method
[5] = tested on: Salmonella enterica subsp. enterica; test: Antimicrobial activity against multidrug-resistant Salmonella enterica Serovar Typhi isolate nar 46 harboring DNA gyrase A D87G mutation by disk diffusion method
[6] = tested on: Salmonella enterica subsp. enterica; test: Antimicrobial activity against multidrug-resistant Salmonella enterica Serovar Typhi isolate nar 104 harboring DNA gyrase A S83F mutation by disk diffusion method in presence of plasmid mediated quinolone-resistant gene qnrA and qnrS
[7] = tested on: Salmonella enterica subsp. enterica; test: Antimicrobial activity against multidrug-resistant Salmonella enterica Serovar Typhi isolate AG168 harboring DNA gyrase A S83F mutation by disk diffusion method
[8] = tested on: Salmonella enterica subsp. enterica; test: Antimicrobial activity against multidrug-resistant Salmonella enterica Serovar Typhi isolate DT2 harboring DNA gyrase A S83F mutation by disk diffusion method in presence of plasmid mediated quinolone-resistant gene qnrA and qnrS
[9] = tested on: Salmonella enterica subsp. enterica; test: Antimicrobial activity against multidrug-resistant Salmonella enterica Serovar Typhi isolate AG8 harboring DNA gyrase A S83F mutation by disk diffusion method
[10] = tested on: Salmonella enterica subsp. enterica; test: Antimicrobial activity against multidrug-resistant Salmonella enterica Serovar Typhi isolate AG152 harboring DNA gyrase A S83F and D87G mutation by disk diffusion method in presence of plasmid mediated quinolone-resistant gene qnrA and qnrS
[11] = tested on: Salmonella enterica subsp. enterica; test: Antimicrobial activity against multidrug-resistant Salmonella enterica Serovar Typhi isolate AG15 harboring DNA gyrase A S83F mutation by disk diffusion method
[12] = tested on: Salmonella enterica subsp. enterica; test: Antimicrobial activity against multidrug-resistant Salmonella enterica Serovar Typhi isolate nar 28 harboring DNA gyrase A S83F mutation by disk diffusion method
[13] = tested on: Salmonella enterica subsp. enterica; test: Antimicrobial activity against multidrug-resistant Salmonella enterica Serovar Typhi isolate DT54 harboring DNA gyrase A S83F mutation by disk diffusion method
[14] = tested on: Salmonella enterica subsp. enterica; test: Antimicrobial activity against multidrug-resistant Salmonella enterica Serovar Typhi isolate ipt 32 harboring DNA gyrase A S83F mutation by disk diffusion method
[15] = tested on: Salmonella enterica subsp. enterica; test: Antimicrobial activity against multidrug-resistant Salmonella enterica Serovar Typhi isolate AG17 harboring DNA gyrase A S83F mutation by disk diffusion method
[16] = tested on: Salmonella enterica subsp. enterica; test: Antimicrobial activity against multidrug-resistant Salmonella enterica Serovar Typhi isolate DT60 harboring DNA gyrase A S83F mutation by disk diffusion method
[17] = tested on: Salmonella enterica subsp. enterica; test: Antimicrobial activity against multidrug-resistant Salmonella enterica Serovar Typhi isolate AG7 harboring DNA gyrase A S83F mutation by disk diffusion method
[18] = tested on: Salmonella enterica subsp. enterica; test: Antimicrobial activity against Salmonella enterica Serovar Typhi isolate E86 harboring DNA gyrase A S83F mutation by disk diffusion method in presence of plasmid mediated quinolone-resistant gene qnrA and qnrS
[19] = tested on: Salmonella enterica subsp. enterica; test: Antimicrobial activity against Salmonella enterica Serovar Typhi isolate C152 harboring DNA gyrase A S83Y mutation by disk diffusion method in presence of plasmid mediated quinolone-resistant gene qnrA and qnrS
[20] = tested on: Salmonella enterica subsp. enterica; test: Antimicrobial activity against multidrug-resistant Salmonella enterica Serovar Typhi isolate DT48 harboring DNA gyrase A S83F mutation by disk diffusion method
[21] = tested on: Salmonella enterica subsp. enterica; test: Antimicrobial activity against multidrug-resistant Salmonella enterica Serovar Typhi isolate DT15 harboring DNA gyrase A S83F mutation by disk diffusion method
[22] = tested on: Salmonella enterica subsp. enterica; test: Antimicrobial activity against multidrug-resistant Salmonella enterica Serovar Typhi isolate BL 21095 harboring DNA gyrase A S83F mutation by disk diffusion method in presence of plasmid mediated quinolone-resistant gene qnrA and qnrS
[23] = tested on: Salmonella enterica subsp. enterica; test: Antimicrobial activity against Salmonella enterica Serovar Typhi isolate ipt 2 harboring DNA gyrase A D87G mutation by disk diffusion method in presence of plasmid mediated quinolone-resistant gene qnrA and qnrS
[24] = tested on: Salmonella enterica subsp. enterica; test: Antimicrobial activity against multidrug-resistant Salmonella enterica Serovar Typhi isolate CT61 harboring DNA gyrase A S83F mutation by disk diffusion method in presence of plasmid mediated quinolone-resistant gene qnrA and qnrS
[25] = tested on: Salmonella enterica subsp. enterica; test: Antimicrobial activity against multidrug-resistant Salmonella enterica Serovar Typhi isolate nar 102 harboring DNA gyrase A S83F mutation by disk diffusion method in presence of plasmid mediated quinolone-resistant gene qnrA and qnrS
[26] = tested on: Salmonella enterica subsp. enterica; test: Antimicrobial activity against multidrug-resistant Salmonella enterica Serovar Typhi isolate DT49 harboring DNA gyrase A S83F mutation by disk diffusion method
[27] = tested on: Salmonella enterica subsp. enterica; test: Antimicrobial activity against multidrug-resistant Salmonella enterica Serovar Typhi isolate DT18 harboring DNA gyrase A S83F and D87G mutation by disk diffusion method
[28] = tested on: Salmonella enterica subsp. enterica; test: Antimicrobial activity against Salmonella enterica Serovar Typhi isolate CT142 harboring DNA gyrase A S83F mutation by disk diffusion method in presence of plasmid mediated quinolone-resistant gene qnrA and qnrS
[29] = tested on: Salmonella enterica subsp. enterica; test: Antimicrobial activity against multidrug-resistant Salmonella enterica Serovar Typhi isolate CT29 harboring DNA gyrase A S83F mutation by disk diffusion method in presence of plasmid mediated quinolone-resistant gene qnrA and qnrS
[30] = tested on: Salmonella enterica subsp. enterica; test: Antimicrobial activity against multidrug-resistant Salmonella enterica Serovar Typhi isolate DT37 harboring DNA gyrase A S83F mutation by disk diffusion method
[31] = tested on: Salmonella enterica subsp. enterica; test: Antimicrobial activity against multidrug-resistant Salmonella enterica Serovar Typhi isolate DT3 harboring DNA gyrase A S83F mutation by disk diffusion method in presence of plasmid mediated quinolone-resistant gene qnrA and qnrS
[32] = tested on: Salmonella enterica subsp. enterica; test: Antimicrobial activity against multidrug-resistant Salmonella enterica Serovar Typhi isolate BL 3769 harboring DNA gyrase A S83F mutation by disk diffusion method in presence of plasmid mediated quinolone-resistant gene qnrA and qnrS
[33] = tested on: Salmonella enterica subsp. enterica; test: Antimicrobial activity against multidrug-resistant Salmonella enterica Serovar Typhi isolate HTD 798 harboring DNA gyrase A S83F mutation by disk diffusion method
[34] = tested on: Salmonella enterica subsp. enterica; test: Antimicrobial activity against Salmonella enterica Serovar Typhi isolate CT145 harboring DNA gyrase A S83F mutation by disk diffusion method in presence of plasmid mediated quinolone-resistant gene qnrA and qnrS
[35] = tested on: Salmonella enterica subsp. enterica; test: Antimicrobial activity against Salmonella enterica Serovar Typhi isolate AG258 harboring DNA gyrase A S83F mutation by disk diffusion method in presence of plasmid mediated quinolone-resistant gene qnrA and qnrS
[36] = tested on: Salmonella enterica subsp. enterica; test: Antimicrobial activity against multidrug-resistant Salmonella enterica Serovar Typhi isolate DT9 harboring DNA gyrase A S83F mutation by disk diffusion method
[37] = tested on: Salmonella enterica subsp. enterica; test: Antimicrobial activity against multidrug-resistant Salmonella enterica Serovar Typhi isolate CT118 harboring DNA gyrase A S83F mutation by disk diffusion method in presence of plasmid mediated quinolone-resistant gene qnrA and qnrS
[38] = tested on: Salmonella enterica subsp. enterica; test: Antimicrobial activity against Salmonella enterica Serovar Typhi isolate BL 21801 harboring DNA gyrase A S83F mutation by disk diffusion method in presence of plasmid mediated quinolone-resistant gene qnrA and qnrS
[39] = tested on: Salmonella enterica subsp. enterica; test: Antimicrobial activity against multidrug-resistant Salmonella enterica Serovar Typhi isolate nar 107 harboring DNA gyrase A S83F mutation by disk diffusion method in presence of plasmid mediated quinolone-resistant gene qnrA and qnrS

Row | Structure (SMILES) | MIC [1] | MIC [2] | MIC [3] | MIC [4] | MIC [5] | MIC [6] | MIC [7] | MIC [8] | MIC [9] | MIC [10] | MIC [11] | MIC [12] | MIC [13] | MIC [14] | MIC [15] | MIC [16] | MIC [17] | MIC [18] | MIC [19] | MIC [20] | other results
1 | O=C(O)c1cn(C2CC2)c2cc(N3CCNCC3)c(F)cc2c1=O [CIPROFLOXACIN] | 0.25 µg/mL | 0.38 µg/mL (≈ 1.15 µM) | 0.5 µg/mL | 0.38 µg/mL (≈ 1.15 µM) | 0.06 µg/mL (≈ 0.181 µM) | 0.25 µg/mL | 0.38 µg/mL (≈ 1.15 µM) | 0.5 µg/mL | 0.5 µg/mL (≈ 1.51 µM) | 0.38 µg/mL | 0.5 µg/mL (≈ 1.51 µM) | 0.5 µg/mL (≈ 1.51 µM) | 0.5 µg/mL (≈ 1.51 µM) | 0.5 µg/mL (≈ 1.51 µM) | 0.5 µg/mL (≈ 1.51 µM) | 0.25 µg/mL (≈ 0.754 µM) | 0.5 µg/mL (≈ 1.51 µM) | 0.25 µg/mL | 0.25 µg/mL | 0.5 µg/mL (≈ 1.51 µM) | MIC [21]: 0.5 µg/mL (≈ 1.51 µM); MIC [22]: 0.25 µg/mL; MIC [23]: 0.25 µg/mL; MIC [24]: 0.125 µg/mL; MIC [25]: 0.125 µg/mL; MIC [26]: 0.5 µg/mL (≈ 1.51 µM); MIC [27]: 0.5 µg/mL (≈ 1.51 µM); MIC [28]: 0.38 µg/mL; MIC [29]: 0.5 µg/mL; MIC [30]: 0.5 µg/mL (≈ 1.51 µM); MIC [31]: 0.5 µg/mL; MIC [32]: 0.25 µg/mL; MIC [33]: 0.38 µg/mL (≈ 1.15 µM); MIC [34]: 0.38 µg/mL; MIC [35]: 0.5 µg/mL; MIC [36]: 0.5 µg/mL (≈ 1.51 µM); MIC [37]: 0.38 µg/mL; MIC [38]: 0.25 µg/mL; MIC [39]: 0.25 µg/mL
2 | COc1c(N2CCNC(C)C2)c(F)cc2c(=O)c(C(=O)O)cn(C3CC3)c12 (stereo not drawn) [GATIFLOXACIN] | 0.19 µg/mL | 0.125 µg/mL (≈ 0.333 µM) | 0.125 µg/mL | 0.13 µg/mL (≈ 0.346 µM) | 0.032 µg/mL (≈ 0.0852 µM) | 0.125 µg/mL | 0.13 µg/mL (≈ 0.346 µM) | 0.125 µg/mL | 0.19 µg/mL (≈ 0.506 µM) | 0.25 µg/mL | 0.13 µg/mL (≈ 0.346 µM) | 0.19 µg/mL (≈ 0.506 µM) | 0.125 µg/mL (≈ 0.333 µM) | 0.125 µg/mL (≈ 0.333 µM) | 0.19 µg/mL (≈ 0.506 µM) | 0.125 µg/mL (≈ 0.333 µM) | 0.19 µg/mL (≈ 0.506 µM) | 0.19 µg/mL | 0.19 µg/mL | 0.125 µg/mL (≈ 0.333 µM) | MIC [21]: 0.094 µg/mL (≈ 0.25 µM); MIC [22]: 0.19 µg/mL; MIC [23]: 0.125 µg/mL; MIC [24]: 0.064 µg/mL; MIC [25]: 0.094 µg/mL; MIC [26]: 0.125 µg/mL (≈ 0.333 µM); MIC [27]: 0.25 µg/mL (≈ 0.666 µM); MIC [28]: 0.125 µg/mL; MIC [29]: 0.094 µg/mL; MIC [30]: 0.125 µg/mL (≈ 0.333 µM); MIC [31]: 0.094 µg/mL; MIC [32]: 0.19 µg/mL; MIC [33]: 0.13 µg/mL (≈ 0.346 µM); MIC [34]: 0.094 µg/mL; MIC [35]: 0.19 µg/mL; MIC [36]: 0.25 µg/mL (≈ 0.666 µM); MIC [37]: 0.094 µg/mL; MIC [38]: 0.19 µg/mL; MIC [39]: 0.125 µg/mL
